Measurements taken from patent publication US20050159362A1, “Mediators of reverse cholesterol transport for the treatment of hypercholesterolemia” (priority 2003, published 2005).
“Also recorded” adds a separate entry of the source. Square brackets hold non-standard residues; d marks the D form. Ends that are not written are not given here. Bip = N[C@@H](Cc1ccc(-c2ccccc2)cc1)C(=O)O

Legend:
[1] = test system: C57BL/6J mice switched on HFC diet; assay: Long term effect of peptides on lipoprotein metabolism (7 days pumps, 160 hrs); type: in vivo, mouse; settings: 160 hrs infusion, pumps 1 μl/hr
Description: (§1) Effect of time-released peptides on plasma lipoprotein profile—To determine relatively long-term effect of SEQ ID NO: 1 and its derivatives on plasma lipoprotein profile, the Alzet Mini-Osmotic pumps (220 ul), containing various peptides or PBS, were surgically inserted in canulated Chow fed C57BL/6J mice. The pumps with flow rate equal to 8 μl/hr were used for 20 hrs continuous infusion of peptides. The pumps with flow rate equal to 1 μl/hr were used for 160 hrs continuous infusions of peptides. At the end point (20 or 160 hrs after pumps insertion) mice were sacrificed, and blood was drawn by retroorbital puncture and subjected to low speed centrifugation at 4° C. to obtain the plasma. Bile was immediately removed from gall bladders using insulin syringes, and stored on ice until use.
To determine HDL cholesterol, low density lipoproteins were precipitated from plasma using a modified Burstein-Samaille method according to manufacturer's instructions (Boehringer Mannheim 543004), modifying only the ratio of reagent:water from 4:1 to 4:2. Gall bladder derived bile was diluted twice with deionized water, and cholesterol was determined using. Infinity reagents. 3α-Hydroxybile acids were quantified uiising a colorimetric-enzymatic method (Sigma 450).
To monitor cholesterol distribution among the different lipoprotein classes, plasma samples were combined within each group (usually 4-6 mice per group), and subjected to FPLC size-exclusion chromatography on a Superose 6 (HR 10/30 column, Amersham-Pharmacia) using an isocratic 10 mM Tris/150 mM NaCl/1 mM EDTA buffer system at a flow rate of 0.15 ml/min. […] Total and free cholesterol in plasma fractions was determined by using the fluorescent method of W. Gamble, et al. (Gamble et al., 1978, Journal Lipid Res., 16: 1068-1070). 96-well plates were read on Dual-Scanning Microplate Spectrofluorometer Gemini XS (Molecular Devices). The areas under the lipoprotein peaks were quantified by using Unicorn software (Version 3.21.02). The amount of esterified cholesterol was assessed by subtraction of free cholesterol from total cholesterol. […]

[2] = target: T1, PLTP (Mus musculus, UniProt P55065); assay: Effect of peptides on PLTP activity; type: biochemical; settings: mouse plasma incubated with 0.4, 2, 5 and 10 ug peptide at RT for 30 min
T1 construct: Mouse plasma (source of enzyme), obtained from Chow fed mice and from mice fed with high fat cholate containing diet; from tissue; host or cells: serum/plasma of C57BL/6J male mice (chow-fed or high fat cholate diet for 4 days)
Description: Effect of peptides on PLTP activity—PLTP activity was measured using a fluorescent kit (Cardiovascular Targets, Inc., P7700). PLTP source was serum obtained from C57BL/6J male 2 months old mice, which were Chow-fed or maintained on high fat cholate containing diet for four days. 1× Mouse serum was preincubated with PBS or 0.4, 2, 5, and 10 μg of peptides at RT for 30 minutes. Following preincubation, the mixture was diluted 10 times, and 10 μl ([…] nest serum) was immediately mixed into reaction wells of pre-chilled 96-well plate, containing assay system (Cardiovascular Targets, Inc., P7700). The microplates were read at 37° C. in SpectraMax 190 (Molecular Devices), for 30 minutes.
Mouse plasma (source of enzyme), obtained from Chow fed mice and from mice fed with high fat cholate containing diet for 4 days, was incubated with PBS or the peptide of SEQ ID Nos: 34, 86, 91 and 96 (0.4, 2, 5, and 10 ug) at RT for 30 min. Reaction was started by addition of 0.3 μl of plasma/PBS or plasma/SEQ ID NO mixture to 100 μl of assay solution containing fluorescent substrate. PLTP activity was monitored on Spectrofluorometer for 20 min at 37° C. Each bar represents the Mean±SEM obtained from 3 independent experiments.

[3] = test system: C57BL/6J mice switched on HFC diet; assay: Effect of time-released peptides on plasma lipoprotein profile (20 hrs pumps); type: in vivo, mouse; settings: for plasma HDL cholesterol levels / plasma levels of HDL phospholipids / plasma levels of low density lipoproteins: 20 hrs continuous infusion, pumps 8 ul/hr; for activity upon infusion into mice for 20 hrs: 20 hrs infusion, FIG. 16
Description: as §1
(§2) To monitor cholesterol distribution among the different lipoprotein classes, plasma samples were combined within each group (usually 4-6 mice per group), and subjected to FPLC size-exclusion chromatography on a Superose 6 (HR 10/30 column, Amersham-Pharmacia) using an isocratic 10 mM Tris/150 mM NaCl/1 mM EDTA buffer system at a flow rate of 0.15 ml/min. Fractions (0.15 ml) were collected into 96-well plates containing 0.055 ml of 1:1 mixture of 0.5% Triton X-100 and 20 mM Sodium Cholate. Total and free cholesterol in plasma fractions was determined by using the fluorescent method of W. Gamble, et al. (Gamble et al., 1978, Journal Lipid Res., 16: 1068-1070). 96-well plates were read on Dual-Scanning Microplate Spectrofluorometer Gemini XS (Molecular Devices). The areas under the lipoprotein peaks were quantified by using Unicorn software (Version 3.21.02). The amount of esterified cholesterol was assessed by subtraction of free cholesterol from total cholesterol.
To monitor the distribution of phospholipid among the lipoprotein classes, plasma samples were combined within each group (usually 4-6 mice per group), and subjected to agarose gel electrophoresis, which was carried out using the Paragon system (Beckman Coulter) according to manufacturer's instructions, with following staining with Paragon Lipo Stain (Beckman Coulter 655910). Once dried, the gels were scanned on Personal Densitometer SI (Molecular Dynamics) and bands were quantified using ImageQuant™ software (Verssion 5.2).
Impact of SEQ ID NO: 1 on lipoprotein metabolism (20 hrs pumps)—To determine relatively long-term effect of SEQ ID NO: 1 on plasma lipoprotein profile, the Alzet Mini-Osmotic pumps, containing SEQ ID NO: 1 or PBS, were surgically inserted in canculated Chow fed C57BL/6J mice. The pumps flow rate was equal to 8 ul per hr, which provided the delivery amount of SEQ ID NO: 1 per hr as indicated for FIG. 9. Mice were switched on HFC diet immediately after surgery. 20 hrs later plasma samples were obtained, combined within each group (4 to 6 mice), and subjected to FPLC analysis and agarose gel electrophoresis for assessment of cholesterol and phospholipid distribution among the lipoprotein classes. […] The LDL lowering effect was attenuated with increase of SEQ ID NO: 1 concentration. This phenomenon can be explained by self-competition between free and LDL-bound form of SEQ ID NO: 1 for the liver lipoprotein binding sites. In contrast, HDL cholesterol levels were positively correlated with SEQ ID NO: 1 concentration.
Impact of SEQ ID NO: 1 structural derivatives (3 to 13 amino acid residues) on lipoprotein metabolism (20 hrs pumps)—To determine relatively long-term effect on plasma lipoprotein profile, the Alzet Mini-osmotic pumps, containing SEQ ID NO: 1 derivatives or PBS, were surgically inserted in canulated Chow fed C57BL/6J mice. The pumps flow rate was equal to 8 ul per hr, which provided the deliveries of 30-40 μg of peptides per hr. Mice were switched on HFC diet immediately after surgery. […]

[4] = test system: C57BL/6J mice fed a cholate-containing high fat diet (HFC); assay: Effect of single bolus injections of peptides on plasma lipoprotein profile; type: in vivo, mouse
Description: Effect of single bolus injections of peptides on plasma lipoprotein profile—To monitor effect of peptides on plasma cholesterol levels and its distribution among the different lipoprotein classes, the nonradioiodinated free peptides (100 μg in 100 μl of PBS) were injected intravenously into the tail vein of nonfasted C57BL/6J wild type mice, which have been placed on high fat cholate-containing diet four days prior to experiment. To control for the effect of external- and/or internal nonspecific factors (stress of handling, anesthetic, blood drawing) on plasma lipoprotein profile, a similar group of mice was injected with only PBS. Different groups of mice were sacrificed before and at various times after injections and blood was drawn by retroorbital puncture and subjected to low speed centrifugation at 4° C. to obtain the plasma. Plasma samples were obtained, combined within each group (4 mice), and subjected to gel filtration chromatography on a Superose 6 (HR 10/30 column, FPLC) to monitor cholesterol lipoproteins distribution and agarose gel electrophoresis (Paragon Systems) to monitor phospholipid lipoproteins distribution.
as §2
Mice were divided into two groups—control and experimental. Each group contained 4 mice.
Effect of “frame-shift” derived peptides on lipoprotein metabolism (Single bolus injections)—We performed the functional frame-shift of the entire region of mouse apolipoprotein A1 where SEQ ID NO: 1 derived from (helix 6, Pro166-Pro188, precursor protein). Frame-shift was done in both directions (form N-to C- and from C- to N-Terminus). […] Mice were divided into two groups—control and experimental. Each group contained 4 mice. […] The data are expressed as percent of change of total cholesterol (TC) content of VLDL, IDL/LDL, and HDL classes in experimental mice relative to control (PBS injected) mice.
Effect of chemically modified derivatives of SEQ ID NO: 1 and peptides derived from other mouse apoA1 regions on mouse plasma lipoprotein profile (Single bolus injections)—To increase SEQ ID NO: 1 hydrophobicity, Phenyl Acetyl or Pivalic Acid were attached to N-Terminal Tyr residue of SEQ ID NO: 1, or Tyr residue was removed from N-terminus. […] Mice were divided into two groups—control and experimental. Each group contained 4 mice. […] The data are expressed as percent of change of total cholesterol (TC) content of VLDL, IDL/LDL, and HDL classes in experimental mice relative to control (PBS injected) mice.

[5] = test system: LDLR−/− mice and A-I−/− mice; assay: Plasma clearance and tissue distribution of SEQ ID NO: 1-125I-LDL complexes; type: in vivo, mouse
Description: Plasma clearance and tissue distribution of SEQ ID NO: 1-LDL complexes—^125I-LDL (0.2 nmol) was incubated at 37° C. in PBS alone, or with 4 nmol of SEQ ID NO: 1. After 2 h, the mixture was dialyzed against PBS containing […] BHT. ^125I-LDL alone or SEQ ID NO: 1/^125I-LDL complex were injected intravenously into the tail vein of nonfasted mice under metofane anesthesia. Mice were bled at the certain time points after the injection by retroorbital bleeding into heparinized tubes. The blood was subjected to low speed centrifugation (1800 g, 4° C.) and the 10% TCA precipitable radioactivity of the plasma was measured. […] An incision was made in the […] vena cava to clear the perfusate. Within 15 min, the liver, kidneys, spleen, and heart were removed, cleaned, weighed, and counted for ^125I radioactivity. Entire organs were counted with exception of liver, which was counted in pieces. Radioactivity detected per organ or per 1 g of wet tissue was expressed as a percent of the initial total injected radioactivity that was TCA precipitable.
To determine if SEQ ID NO: 1 can associate with human LDL, we attempted to form the complex of ^125I-SEQ ID NO: 1 with isolated human LDL. […] To determine if SEQ ID NQ: 1 influences lipoprotein transport to the liver, we injected the ^125-LDL alone or in complex with SEQ ID NO: 1 into LDLR−/− mice (no LDL-receptor) and A-I−/− mice, which have a functional hepatic LDL-receptor. […] To assess the contribution of LDL-receptors alone, the binding of [^125I-LDL] and [125I-LDL-SEQ ID NO: 1] to the liver of LDLR−/− mice was subtracted from their respective binding to the liver of A-I−/− mice, and data were normalized per gram of wet tissue. […] Influence of SEQ ID NO: 1 on ^125I-LDL binding to kidney, spleen, lung, heart, testis, adrenal, and prostate is shown in FIG. 8. It is noteworthy that no increase in 125I-LDL-SEQ ID NO: 1 complex binding to the heart was observed.

T1 sequence (P55065 18-493): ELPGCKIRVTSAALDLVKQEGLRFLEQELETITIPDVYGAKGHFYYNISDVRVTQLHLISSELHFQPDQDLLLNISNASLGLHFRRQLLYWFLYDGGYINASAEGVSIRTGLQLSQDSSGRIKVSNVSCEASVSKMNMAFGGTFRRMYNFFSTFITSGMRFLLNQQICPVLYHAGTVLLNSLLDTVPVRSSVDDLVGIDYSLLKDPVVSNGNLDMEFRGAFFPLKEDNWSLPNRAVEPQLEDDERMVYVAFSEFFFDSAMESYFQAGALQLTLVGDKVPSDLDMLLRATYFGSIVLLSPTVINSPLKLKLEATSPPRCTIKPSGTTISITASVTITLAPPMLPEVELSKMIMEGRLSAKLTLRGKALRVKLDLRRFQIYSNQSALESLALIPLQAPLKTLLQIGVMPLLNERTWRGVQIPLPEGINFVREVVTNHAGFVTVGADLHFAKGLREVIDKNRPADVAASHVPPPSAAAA

Substance | amount of phospholipid in the HDL zone [1] | effect on PLTP activity [2] | plasma HDL cholesterol levels [3] | plasma levels of HDL phospholipids [3] | plasma levels of low density lipoproteins [3] | other results
E-BIP-R (Glu-[Bip]-Arg) [SEQ ID NO: 91] | increase | activation of PLTP | – | – | – | –
EEFRDR [SEQ ID NO: 87] | – | – | decrease | decrease | increase | –
EFR [SEQ ID NO: 34] | increase | activation of PLTP | – | – | – | –
THVDSLRTQLAP (Ac-THVDSLRTQLAP-NH2) [SEQ ID NO: 7] | – | – | – | – | – | impact on plasma HDL-C levels ([4]; single bolus i.v. 100 μg): marked HDL-C elevating properties
YEFRDRMRTH [SEQ ID NO: 1] | – | – | elevated | elevated | dramatic decrease | in vivo half-life: 2 to 3 h; duration of effect after single bolus injection [4]: up to 180 min; impact on plasma HDL-C levels ([4]; single bolus i.v. 100 μg): slight but significant decrease; impact on VLDL level ([4]; single bolus i.v. 100 μg, entire time course): no significant impact; impact on plasma IDL/LDL, low density lipoproteins ([4]; single bolus i.v. 100 μg, 90, 120 and 180 min after injection): Significant lowering; also recorded: strongest impact; plasma clearance of 125I-LDL-SEQ ID NO: 1 complex ([5]; ApoA1−/− mice, compared to 125I-LDL alone): enhanced plasma clearance; liver-bound 125I-LDL after complexing with SEQ ID NO: 1 ([5]; both mouse genotypes (LDLR−/− and A-I−/−), compared to 125I-LDL alone): significant increase; complex binding to the LDL-receptors (liver binding in A-I−/− minus LDLR−/− mice) ([5]; compared to 125I-LDL alone, per gram of wet tissue): substantial increase; 125I-LDL-SEQ ID NO: 1 complex binding to the heart ([5]; mouse, in vivo): no increase
dRMRTH ([dD]RMRTH) [SEQ ID NO: 36] | – | did not have any significant effect | – | – | – | activity upon infusion into mice for 20 hrs [3]: did not show significant activity
efr ([dE]-[dF]-[dR]) [SEQ ID NO: 96] | – | activation of PLTP | – | – | – | –
erf ([dE]-[dR]-[dF]) [SEQ ID NO: 86] | increase | activation of PLTP | – | – | – | –
rDRMRTh ([dR]DRMRT[dH]) [SEQ ID NO: 35] | – | did not have any significant effect | decrease | decrease | increase | activity upon infusion into mice for 20 hrs [3]: did not show significant activity
